Experimental data as given in patent publication US11072598B2, “Somatostatin modulators and uses thereof” (CRINETICS PHARMACEUTICALS, INC., priority 2017, dated 2021).

The molecules below were run against T1, human somatostatin receptor subtype 2 (Homo sapiens, UniProt P30874) (assay: cAMP functional assay for SSTR2 agonists). Details: inhibition of cAMP activities via human SST2 receptor (SSTR2), CHO-K1 cells; read-out: EC50.
T1 construct: expressed in transfected cells
Type: cell-based
From the text: General overview: All five SSTR subtypes are Gi coupled G-protein coupled receptors (GPCRs) that lead to decreases in intracellular cyclic AMP (cAMP) when activated by an agonist. Therefore, measurement of intracellular cAMP levels can be used to assess whether compounds of the invention are agonists of SSTR subtypes (John Kelly, Troy Stevens, W. Joseph Thompson, and Roland Seifert, Current Protocols in Pharmacology, 2005, 2.2.1-2.2). One example of an intracellular cAMP assay is described below. cAMP assay protocol:
Four days prior to the assay, 5,000 Chinese hamster ovary cells (CHO-K1, ATCC #CCL-61) stably expressing the human somatostatin receptor subtype 2 are plated in each well of a 96-well tissue culture-treated plate in Ham's F12 growth media (ThermoFisher #10-080-CM) supplemented with 10% donor bovine serum (Gemini Bio-Products #100-506), 100 U/mL penicillin; 100 ug/mL streptomycin; 2 mM L-glutamine (Gemini Bio-Products #400-110) and 0.2 mg/mL hygromycin B (GoldBio #31282-04-9). The cells are cultured at 37° C., 5% CO2 and 95% humidity. On the day of the assay, the media is aspirated and the cells are treated with 50 μL of 1.6 μM NKH477 (Sigma #N3290) plus various dilutions of compounds of the invention in assay buffer [1× Hank's Balanced Salt Solution (ThermoFisher #SH3058802), 0.5 mM HEPES pH 7.4, 0.1% bovine serum albumin, 0.2 mM 3-Isobutyl-1-methylxanthine (IBMX, VWR #200002-790)]. The cells are incubated for 20 minutes at 37° C. […] The cells are treated with 50 μL of lysis buffer (HRTF cAMP kit, Cisbio). The lysate is transferred to 384-well plates and cAMP detection and visualization antibodies are added and incubated for 1-24 hours at room temperature. The time-resolved fluorescent signal is read with a Tecan M1000Pro multiplate reader. The intracellular cAMP concentrations are calculated by regression to a standard curve and are plotted vs. the concentration of the compounds of the invention and the EC50 of the compounds are calculated using standard methods. All data manipluations are in GraphPad Prism v6.

T1 sequence (P30874 whole entry): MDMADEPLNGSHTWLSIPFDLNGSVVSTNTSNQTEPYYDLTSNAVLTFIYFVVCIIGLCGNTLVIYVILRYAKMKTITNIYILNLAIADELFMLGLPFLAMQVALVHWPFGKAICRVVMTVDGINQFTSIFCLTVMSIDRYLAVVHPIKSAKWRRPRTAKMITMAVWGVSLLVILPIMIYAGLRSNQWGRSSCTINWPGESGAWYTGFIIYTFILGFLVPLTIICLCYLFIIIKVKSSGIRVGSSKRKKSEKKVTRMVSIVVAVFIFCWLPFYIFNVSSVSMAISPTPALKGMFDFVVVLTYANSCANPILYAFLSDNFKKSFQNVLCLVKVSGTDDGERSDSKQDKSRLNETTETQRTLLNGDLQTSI

Molecule | EC50 [µM]
COc1cc(F)c2[nH]c(-c3c(N)ncc(-c4cc(C)cc(C)c4)c3N3CCC(N)CC3)nc2c1 [Compound 1-84] | < 0.01
CON=Cc1cc(OC)c2[nH]c(-c3c(N)ncc(-c4cc(C)cc(F)c4)c3N3CCC(N)CC3)nc2c1 [Compound 1-76, 4-(4-aminopiperidin-1-yl)-5-(3-fluoro-5-methylphenyl)-3-{7-methoxy-5-[(methoxyimino)methyl]-1H-1,3-benzodiazol-2-yl}pyridin-2-amine] | < 0.01
CON(C)C(=O)c1cccc2nc(-c3c(N)ncc(-c4cc(C)cc(F)c4)c3N3CCC(N)CC3)[nH]c12 [Compound 1-18, 2-[2-amino-4-(4-aminopiperidin-1-yl)-5-(3-fluoro-5-methylphenyl)pyridin-3-yl]-N-methoxy-N-methyl-1H-1,3-benzodiazole-7-carboxamide] | 0.01 to 0.1
Cc1cc(F)cc(-c2cnc(N)c(-c3cc4ccc(C#N)cc4[nH]3)c2N2CCC(N)CC2)c1 [Compound 1-33, 2-[2-amino-4-(4-aminopiperidin-1-yl)-5-(3-fluoro-5-methylphenyl)pyridin-3-yl]-1H-indole-6-carbonitrile] | < 0.01
Cc1cc(F)cc(-c2cnc(N)c(-c3nc4c(F)cc(OCC#N)cc4[nH]3)c2N2CCC(N)CC2)c1 [Compound 1-60, 2-({2-[2-amino-4-(4-aminopiperidin-1-yl)-5-(3-fluoro-5-methylphenyl)pyridin-3-yl]-4-fluoro-1H-1,3-benzodiazol-6-yl}oxy)acetonitrile] | < 0.01
C#Cc1cc(F)c2[nH]c(-c3c(N)ncc(-c4cc(C)cc(F)c4)c3N3CCC(N)CC3)nc2c1 [Compound 1-66, 4-(4-aminopiperidin-1-yl)-3-(5-ethynyl-7-fluoro-1H-1,3-benzodiazol-2-yl)-5-(3-fluoro-5-methylphenyl)pyridin-2-amine] | < 0.01
CNc1ncc(-c2cc(C)cc(F)c2)c(N2CCC(N)CC2)c1-c1nc2cc(C#N)cc(F)c2[nH]1 [Compound 1-89, 2-[4-(4-aminopiperidin-1-yl)-5-(3-fluoro-5-methylphenyl)-2-(methylamino)pyridin-3-yl]-7-fluoro-1H-1,3-benzodiazole-5-carbonitrile] | < 0.01
C=Cn1c(-c2c(N)ncc(-c3cc(C)cc(F)c3)c2N2CCC(N)CC2)nc2cc(F)c(F)cc21 [Compound 1-4, 4-(4-aminopiperidin-1-yl)-3-(1-ethenyl-5,6-difluoro-1H-1,3-benzodiazol-2-yl)-5-(3-fluoro-5-methylphenyl)pyridin-2-amine] | < 0.01
Cc1cc(Cl)cc(-c2cnc(N)c(-c3nc4cc(F)cc(F)c4[nH]3)c2N2CCC(N)CC2)c1 [Compound 1-79, 4-(4-aminopiperidin-1-yl)-5-(3-chloro-5-methylphenyl)-3-(5,7-difluoro-1H-1,3-benzodiazol-2-yl)pyridin-2-amine] | < 0.01
C#Cc1ccc2[nH]c(-c3c(N)ncc(-c4cc(C)cc(F)c4)c3N3CCC(N)CC3)nc2c1 [Compound 1-65, 4-(4-aminopiperidin-1-yl)-3-(5-ethynyl-1H-1,3-benzodiazol-2-yl)-5-(3-fluoro-5-methylphenyl)pyridin-2-amine] | < 0.01
Nc1ncc(-c2cc(F)cc(F)c2)c(N2CCC(N)CC2)c1-c1nc2cc(Cl)cc(F)c2[nH]1 [Compound 1-82, 4-(4-aminopiperidin-1-yl)-3-(5-chloro-7-fluoro-1H-1,3-benzodiazol-2-yl)-5-(3,5-difluorophenyl)pyridin-2-amine] | < 0.01
Cc1cc(C)cc(-c2cnc(N)c(-c3nc4cc(F)cc(F)c4[nH]3)c2N2CCC(N)CC2)c1 [Compound 1-78, 4-(4-aminopiperidin-1-yl)-3-(5,7-difluoro-1H-1,3-benzodiazol-2-yl)-5-(3,5-dimethylphenyl)pyridin-2-amine] | < 0.01
Cc1cc(Cl)cc(-c2cnc(N)c(C=NO)c2N2CCC(N)CC2)c1 [Compound 1-39, 4-(4-aminopiperidin-1-yl)-5-(3-chloro-5-methylphenyl)-3-[(hydroxyimino)methyl]pyridin-2-amine] | > 0.1
4-(4-aminopiperidin-1-yl)-5-(3-fluoro-5-methylphenyl)-3-(7-methoxy-1H-1,3-benzodiazol-2-yl)pyridin-2-amine [Compound 1-13] | < 0.01
CON=Cc1cc(F)c2[nH]c(-c3c(N)ncc(-c4cc(C)cc(F)c4)c3N3CCC(N)CC3)nc2c1 [Compound 1-61, 4-(4-aminopiperidin-1-yl)-5-(3-fluoro-5-methylphenyl)-3-{7-fluoro-5-[(methoxyimino)methyl]-1H-1,3-benzodiazol-2-yl}pyridin-2-amine] | < 0.01
CON(C)C(=O)c1ccc2[nH]c(-c3c(N)ncc(-c4cc(C)cc(F)c4)c3N3CCC(N)CC3)nc2c1 [Compound 1-24, 2-[2-amino-4-(4-aminopiperidin-1-yl)-5-(3-fluoro-5-methylphenyl)pyridin-3-yl]-N-methoxy-N-methyl-1H-1,3-benzodiazole-5-carboxamide] | < 0.01
Cc1cc(F)cc(-c2cnc(N)c(-c3nc4cc(C#N)cc(F)c4[nH]3)c2N2CCC(N)CC2)c1 [Compound 1-69, 2-[2-amino-4-(4-aminopiperidin-1-yl)-5-(3-fluoro-5-methylphenyl)pyridin-3-yl]-7-fluoro-1H-1,3-benzodiazole-5-carbonitrile] | < 0.01

The remaining lines, values ahead:

EC50 [µM] | Molecule
< 0.01 | COc1cc(F)cc2nc(-c3c(N4CC(F)C4)ncc(-c4cccc(F)c4)c3N3CCC(N)CC3)[nH]c12 [Compound 4-9, 1-[3-(5-fluoro-7-methoxy-1H-1,3-benzodiazol-2-yl)-2-(3-fluoroazetidin-1-yl)-5-(3-fluorophenyl)pyridin-4-yl]piperidin-4-amine]
< 0.01 | Cc1cc(F)cc(-c2cnnc(-c3nc4cc(Cl)ccc4[nH]3)c2N2CCC(N)CC2)c1 [Compound 3-3, 1-[3-(5-chloro-1H-1,3-benzodiazol-2-yl)-5-(3-fluoro-5-methylphenyl)pyridazin-4-yl]piperidin-4-amine]
< 0.01 | COc1ccc2c(C#N)c(-c3nncc(-c4cc(C)cc(F)c4)c3N3CCC(N)CC3)[nH]c2c1 [Compound 3-25, 2-[4-(4-aminopiperidin-1-yl)-5-(3-fluoro-5-methylphenyl)pyridazin-3-yl]-6-methoxy-1H-indole-3-carbonitrile]
< 0.01 | Cc1cc(F)cc(-c2cnnc(-c3cc4ccc(Cl)cc4[nH]3)c2N2CCC(N)CC2)c1 [Compound 3-2, 1-[3-(6-chloro-1H-indol-2-yl)-5-(3-fluoro-5-methylphenyl)pyridazin-4-yl]piperidin-4-amine]
< 0.01 | COc1ccc2cc(-c3nncc(-c4cc(C)cc(F)c4)c3N3CCC(N)CC3)[nH]c2c1 [Compound 3-5, 1-[5-(3-fluoro-5-methylphenyl)-3-(6-methoxy-1H-indol-2-yl)pyridazin-4-yl]piperidin-4-amine]
< 0.01 | COc1cccc2nc(-c3c(N(C)C)ncc(-c4cc(C)cc(F)c4)c3N3CCC(N)CC3)[nH]c12 [Compound 4-4, 4-(4-aminopiperidin-1-yl)-5-(3-fluoro-5-methylphenyl)-3-(7-methoxy-1H-1,3-benzodiazol-2-yl)-N,N-dimethylpyridin-2-amine]
< 0.01 | CO[C@@H]1CN(c2c(-c3cc(C)cc(F)c3)cnnc2-c2cc3ccc(Cl)cc3[nH]2)CC[C@H]1N (relative stereo) [Compound 3-11, trans-1-[3-(6-chloro-1H-indol-2-yl)-5-(3-fluoro-5-methylphenyl)pyridazin-4-yl]-3-methoxypiperidin-4-amine]
< 0.01 | Cc1cc(F)cc(-c2cnnc(-c3cc4ccc(C(N)=O)cc4[nH]3)c2N2CCC(N)CC2)c1 [Compound 3-19, 2-[4-(4-aminopiperidin-1-yl)-5-(3-fluoro-5-methylphenyl)pyridazin-3-yl]-1H-indole-6-carboxamide]
< 0.01 | Cc1cc(F)cc(-c2cnnc(-c3nc4cc(F)ccc4[nH]3)c2N2CCC(N)CC2)c1 [Compound 3-13, 1-[3-(5-fluoro-1H-1,3-benzodiazol-2-yl)-5-(3-fluoro-5-methylphenyl)pyridazin-4-yl]piperidin-4-amine]
< 0.01 | Cc1cc(F)cc(-c2cnnc(-c3cc4c(Cl)cccc4[nH]3)c2N2CCC(N)CC2)c1 [Compound 3-6, 1-[3-(4-chloro-1H-indol-2-yl)-5-(3-fluoro-5-methylphenyl)pyridazin-4-yl]piperidin-4-amine]
0.01 to 0.1 | COc1ncc(-c2cc(C)cc(C#N)c2)c(N2CCC(N)CC2)c1-c1nc2cc(Cl)ccc2[nH]1 [Compound 2-6, 3-[4-(4-aminopiperidin-1-yl)-5-(5-chloro-1H-1,3-benzodiazol-2-yl)-6-methoxypyridin-3-yl]-5-methylbenzonitrile]
